Experiment: xn = mol fraction of the nth substance listed

C1COCCO1 + CO
Conditions	viscosity [mPa·s]
293.15 K, 101 kPa, x2 = 0.2465	0.9992
293.15 K, 101 kPa, x2 = 0.3957	0.8686
293.15 K, 101 kPa, x2 = 0.5458	0.7639
293.15 K, 101 kPa, x2 = 0.6558	0.6972
293.15 K, 101 kPa, x2 = 0.7331	0.6579
293.15 K, 101 kPa, x2 = 0.8062	0.6268
293.15 K, 101 kPa, x2 = 0.8648	0.6069
293.15 K, 101 kPa, x2 = 0.9198	0.5935
293.15 K, 101 kPa, x2 = 0.9635	0.5877
293.15 K, 101.3 kPa, x2 = 0.1975	1.045
293.15 K, 101.3 kPa, x2 = 0.3447	0.9049
293.15 K, 101.3 kPa, x2 = 0.4743	0.8065
293.15 K, 101.3 kPa, x2 = 0.5836	0.7327
293.15 K, 101.3 kPa, x2 = 0.6782	0.6805
293.15 K, 101.3 kPa, x2 = 0.7588	0.6441
293.15 K, 101.3 kPa, x2 = 0.8312	0.6135
293.15 K, 101.3 kPa, x2 = 0.8936	0.5998
293.15 K, 101.3 kPa, x2 = 0.9503	0.59
298.15 K, 101 kPa, x1 = 0.3	0.6148
298.15 K, 101 kPa, x2 = 0.8474	0.5684
298.15 K, 101 kPa, x2 = 0.9275	0.5488
298.15 K, 101 kPa, x2 = 0.9636	0.5589
298.15 K, 101.3 kPa, x2 = 0.1975	0.9612
298.15 K, 101.3 kPa, x2 = 0.3447	0.8454
298.15 K, 101.3 kPa, x2 = 0.4743	0.7506
298.15 K, 101.3 kPa, x2 = 0.5836	0.6825
298.15 K, 101.3 kPa, x2 = 0.6782	0.6352
298.15 K, 101.3 kPa, x2 = 0.7588	0.6047
298.15 K, 101.3 kPa, x2 = 0.8312	0.578
298.15 K, 101.3 kPa, x2 = 0.9503	0.5443
303.15 K, 101 kPa, x2 = 0.2218	0.8759
303.15 K, 101 kPa, x2 = 0.4075	0.7425
303.15 K, 101 kPa, x2 = 0.5478	0.6573
303.15 K, 101 kPa, x2 = 0.6544	0.6056
303.15 K, 101 kPa, x2 = 0.7387	0.5694
303.15 K, 101 kPa, x2 = 0.8089	0.5455
303.15 K, 101 kPa, x2 = 0.8164	0.5434
303.15 K, 101 kPa, x2 = 0.8671	0.5288
303.15 K, 101 kPa, x2 = 0.9617	0.5105
303.15 K, 101.3 kPa, x2 = 0.1975	0.8931
303.15 K, 101.3 kPa, x2 = 0.3447	0.778
303.15 K, 101.3 kPa, x2 = 0.4743	0.6981
303.15 K, 101.3 kPa, x2 = 0.5836	0.6349
303.15 K, 101.3 kPa, x2 = 0.6782	0.5919
303.15 K, 101.3 kPa, x2 = 0.7588	0.5568
303.15 K, 101.3 kPa, x2 = 0.8312	0.5316
303.15 K, 101.3 kPa, x2 = 0.8936	0.5157
303.15 K, 101.3 kPa, x2 = 0.9503	0.5063
303.15 K, 101.33 kPa, x2 = 0.225	0.877
303.15 K, 101.33 kPa, x2 = 0.4115	0.733
303.15 K, 101.33 kPa, x2 = 0.662	0.603
303.15 K, 101.33 kPa, x2 = 0.923	0.52
308.15 K, 101.3 kPa, x2 = 0.1975	0.831
308.15 K, 101.3 kPa, x2 = 0.3447	0.7262
308.15 K, 101.3 kPa, x2 = 0.4743	0.6503
308.15 K, 101.3 kPa, x2 = 0.5836	0.593
308.15 K, 101.3 kPa, x2 = 0.6782	0.5507
308.15 K, 101.3 kPa, x2 = 0.7588	0.52
308.15 K, 101.3 kPa, x2 = 0.8312	0.497
308.15 K, 101.3 kPa, x2 = 0.9503	0.4725
313.15 K, 101 kPa, x2 = 0.2218	0.7572
313.15 K, 101 kPa, x2 = 0.2465	0.7401
313.15 K, 101 kPa, x2 = 0.4075	0.6436
313.15 K, 101 kPa, x2 = 0.5458	0.5763
313.15 K, 101 kPa, x2 = 0.6544	0.5294
313.15 K, 101 kPa, x2 = 0.7387	0.499
313.15 K, 101 kPa, x2 = 0.8089	0.4782
313.15 K, 101 kPa, x2 = 0.8671	0.4627
313.15 K, 101 kPa, x2 = 0.9635	0.446
323.15 K, 101 kPa, x2 = 0.2465	0.6508
323.15 K, 101 kPa, x2 = 0.3957	0.5742
323.15 K, 101 kPa, x2 = 0.5458	0.5093
323.15 K, 101 kPa, x2 = 0.6558	0.4701
323.15 K, 101 kPa, x2 = 0.7331	0.4449
323.15 K, 101 kPa, x2 = 0.8062	0.4249
323.15 K, 101 kPa, x2 = 0.8648	0.4107
323.15 K, 101 kPa, x2 = 0.9198	0.4003
323.15 K, 101 kPa, x2 = 0.9635	0.3949

O=C1CCCO1 + COC(=O)OC
viscosity [mPa·s]
Conditions	293.15 K	298.15 K	303.15 K	308.15 K	313.15 K	318.15 K	323.15 K
101 kPa, x2 = 0.1013	1.635	1.52	1.413	1.316	1.231	1.154	1.083
101 kPa, x2 = 0.2013	1.437	1.331	1.237	1.154	1.08	1.013	0.953
101 kPa, x2 = 0.3001	1.277	1.186	1.104	1.033	0.968	0.91	0.857
101 kPa, x2 = 0.4006	1.138	1.058	0.987	0.923	0.867	0.816	0.77
101 kPa, x2 = 0.5	1.018	0.95	0.889	0.836	0.786	0.742	0.701
101 kPa, x2 = 0.5986	0.918	0.856	0.802	0.753	0.709	0.669	0.634
101 kPa, x2 = 0.6999	0.83	0.776	0.728	0.685	0.647	0.612	0.58
101 kPa, x2 = 0.7989	0.75	0.702	0.659	0.62	0.585	0.553	0.524
101 kPa, x2 = 0.8995	0.685	0.644	0.605	0.57	0.538	0.51	0.483
101.3 kPa, x2 = 0.1282	–	1.22	–	–	–	–	–
101.3 kPa, x2 = 0.1724	–	1.14	–	–	–	–	–
101.3 kPa, x2 = 0.2631	–	0.99	–	–	–	–	–
101.3 kPa, x2 = 0.4545	–	0.85	–	–	–	–	–
101.3 kPa, x2 = 0.5555	–	0.83	–	–	–	–	–
101.3 kPa, x2 = 0.6603	–	0.76	–	–	–	–	–
101.3 kPa, x2 = 0.7792	–	0.78	–	–	–	–	–
101.3 kPa, x2 = 0.8823	–	0.67	–	–	–	–	–

Brc1ccccc1 + COC(C)=O
viscosity [mPa·s], 101 kPa
Conditions	298.15 K	308.15 K
x2 = 0.0439	0.978	0.915
x2 = 0.1485	0.848	0.811
x2 = 0.2482	0.747	0.725
x2 = 0.3503	0.662	0.649
x2 = 0.4378	0.602	0.592
x2 = 0.4901	0.57	0.561
x2 = 0.5493	0.538	0.529
x2 = 0.6489	0.492	0.48
x2 = 0.7491	0.453	0.437
x2 = 0.8491	0.421	0.399
x2 = 0.9433	0.397	0.368
